Results on 20 molecules are retold here after patent US12240862B2, “Inhibitors of peptidylarginine deiminases” (Gilead Sciences, Inc., priority 2020, dated 2025).

The assay deals with T1, human PAD4 (Homo sapiens, UniProt Q9UM07).
T1 construct: human PAD4 (NM_012387), A2P663, was PCR amplified; His-SUMO (N, cleaved yes); made in house; host or cells: E. coli BL21(DE3)
Put plainly: In vitro PAD4 BAEE biochemical assay. The following applies: human PAD4, BAEE substrate; 5 nM PAD4, 2 mM calcium chloride, 3 mM BAEE; geometric mean of multiple experiments. The essentials: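 Ammonia release from BAEE deimination monitored by o-phthalaldehyde amine coupling (1 h, 25 °C) after EDTA stop. Final conditions: 5 nM tag-free recombinant human PAD4 (E. coli), 2 mM CaCl2, 3 mM BAEE, pH 7.6 MOPS with DTT; 30 min compound preincubation, then 2 h reaction at 25 °C.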

T1 sequence (Q9UM07 2-663): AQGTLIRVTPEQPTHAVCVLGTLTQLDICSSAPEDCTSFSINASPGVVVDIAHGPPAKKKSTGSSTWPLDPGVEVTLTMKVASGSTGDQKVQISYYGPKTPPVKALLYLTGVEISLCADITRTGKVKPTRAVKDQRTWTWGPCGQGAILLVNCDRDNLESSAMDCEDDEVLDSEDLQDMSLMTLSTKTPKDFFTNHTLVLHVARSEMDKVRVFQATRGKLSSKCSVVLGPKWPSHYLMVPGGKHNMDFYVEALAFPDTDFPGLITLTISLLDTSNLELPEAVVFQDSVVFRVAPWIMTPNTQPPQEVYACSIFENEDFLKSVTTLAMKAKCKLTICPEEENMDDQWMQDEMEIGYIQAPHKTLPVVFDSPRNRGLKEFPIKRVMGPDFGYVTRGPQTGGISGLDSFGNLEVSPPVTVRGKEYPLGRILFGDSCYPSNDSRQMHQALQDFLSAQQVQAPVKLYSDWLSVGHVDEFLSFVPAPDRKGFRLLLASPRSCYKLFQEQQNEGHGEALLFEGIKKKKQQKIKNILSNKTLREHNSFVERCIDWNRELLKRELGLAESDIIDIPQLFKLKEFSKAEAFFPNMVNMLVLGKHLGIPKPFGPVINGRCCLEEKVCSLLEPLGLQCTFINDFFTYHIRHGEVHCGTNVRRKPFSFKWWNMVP

Usually IC50 stands for the point on the concentration scale where inhibition reaches its midpoint. For `COc1cc(C(=O)N2CCC[C@@H](N)C2)cc2nc(-c3cc4ccc(C(C)n5cc(N)cn5)nc4n3CC3CC3)c(C)n12` (some centres unmarked) [Example 547, [(3~{R})-3-aminopiperidin-1-yl]-[2-[6-[1-(4-aminopyrazol-1-yl)ethyl]-1-(cyclopropylmethyl)pyrrolo[2,3-b]pyridin-2-yl]-5-methoxy-3-methylimidazo[1,2-a]pyridin-7-yl]methanone], the IC50 was 715 nM.

With `COc1cc(C(=O)N2CCC[C@@H](N)C2)cc2nc(-c3cc4ccc(C(C)n5cc(C#N)cn5)nc4n3CC3CC3)c(C)n12` (some centres unmarked) [Example 548, 1-[1-[2-[7-[(3~{R})-3-aminopiperidine-1-carbonyl]-5-methoxy-3-methylimidazo[1,2-a]pyridin-2-yl]-1-(cyclopropylmethyl)pyrrolo[2,3-b]pyridin-6-yl]ethyl] pyrazole-4-carbonitrile], the IC50 amounted to 532 nM.

Regarding `COc1cc(C(=O)N2[C@H]3CC[C@@H]2[C@H](N)C3)cc2nc(-c3cc4ccc(-c5ccccc5C(F)(F)F)nc4n3CC3CC3)c(C)n12` [Example 549, [(1~{R},2~{R},4~{S})-2-amino-7-azabicyclo [2.2.1]heptan-7-yl]-[2-[1-(cyclopropylmethyl)-6-[2-(trifluoromethyl)phenyl]pyrrolo[2,3-b]pyridin-2-yl]-5-methoxy-3-methylimidazo[1,2-a]pyridin-7-yl]methanone], the IC50 amounted to 3670 nM.

Consider `COc1cc(C(=O)N2[C@H]3CC[C@@H]2[C@H](N)C3)cc2nc(-c3cc4ccc(-c5ccccc5C)nc4n3CC3CC3)c(C)n12` [Example 550, [(1~{R},2~{R},4~{S})-2-amino-7-azabicyclo [2.2.1]heptan-7-yl]-[2-[1-(cyclopropylmethyl)-6-(2-methylphenyl)pyrrolo [2,3-b]pyridin-2-yl]-5-methoxy-3-methylimidazo [1,2-a]pyridin-7-yl]methanone], for which the IC50 is 1850 nM.

`COc1cc(C(=O)N2[C@H]3CC[C@@H]2[C@H](N)C3)cc2nc(-c3cc4ccc(-c5cccnc5C(F)(F)F)nc4n3CC3CC3)c(C)n12` [Example 551, [(1~{R},2~{R},4~{S})-2-amino-7-azabicyclo [2.2.1]heptan-7-yl]-[2-[1-(cyclopropylmethyl)-6-[2-(trifluoromethyl)pyridin-3-yl]pyrrolo[2,3-b]pyridin-2-yl]-5-methoxy-3-methylimidazo [1,2-a]pyridin-7-yl] methanone]: the IC50 is 511 nM.

`CCc1ccc2cc(-c3nc4cc(C(=O)N5[C@H]6CC[C@@H]5[C@H](N)C6)cc(OC)n4c3N)n(CC3CC3)c2n1` [Example 552, [(1~{R},2~{R},4~{S})-2-amino-7-azabicyclo [2.2.1]heptan-7-yl]-[3-amino-2-[1-(cyclopropylmethyl)-6-ethylpyrrolo[2,3-b]pyridin-2-yl]-5-methoxyimidazo [1,2-a]pyridin-7-yl]methanone]: the IC50 is 153 nM.

With `CCc1ccc2cc(-c3nc4cc(C(=O)N5CCC[C@@H](N)C5)cc(OC)n4c3N)n(CC3CC3)c2n1` [Example 553, [3-amino-2-[1-(cyclopropylmethyl)-6-ethylpyrrolo[2,3-b]pyridin-2-yl]-5-methoxyimidazo [1,2-a]pyridin-7-yl]-[(3~{R})-3-aminopiperidin-1-yl]methanone], the 50% inhibitory concentration (IC50) came out at 757 nM.

In the case of `COc1cc(C(=O)N2[C@H]3CC[C@@H]2[C@H](N)C3)cc2nc(-c3cc4ccc([C@H]5CCNC(=O)C5)nc4n3CC3CC3)c(C)n12` [Example 554, (4~{S})-4-[2-[7-[(1~{R}, 2~{R},4~{S})-2-amino-7-azabicyclo[2.2.1]heptane-7-carbonyl]-5-methoxy-3-methylimidazo [1,2-a]pyridin-2-yl]-1-(cyclopropylmethyl)pyrrolo [2,3-b]pyridin-6-yl]piperidin-2-one], the IC50 worked out at 81 nM.

For `COc1cc(C(=O)N2[C@H]3CC[C@@H]2[C@H](N)C3)cc2nc(-c3cc4ccc([C@@H]5CCNC(=O)C5)nc4n3CC3CC3)c(C)n12` [Example 555, (4~{R})-4-[2-[7-[(1~{R},2~{R},4~{S})-2-amino-7-azabicyclo[2.2.1]heptane-7-carbonyl]-5-methoxy-3-methylimidazo [1,2-a]pyridin-2-yl]-1-(cyclopropylmethyl)pyrrolo [2,3-b]pyridin-6-yl]piperidin-2-one], the IC50 turned out to be 69.3 nM.

`COc1ccc(-c2ccc3cc(-c4nc5cc(C(=O)N6[C@H]7CC[C@@H]6[C@H](N)C7)cc(OC)n5c4C)n(CC4CC4)c3n2)c(C)n1` [Example 556, [(1~{R},2~{R},4~{S})-2-amino-7-azabicyclo [2.2.1]heptan-7-yl]-[2-[1-(cyclopropylmethyl)-6-(6-methoxy-2-methylpyridin-3-yl)pyrrolo[2,3-b]pyridin-2-yl]-5-methoxy-3-methylimidazo[1,2-a]pyridin-7-yl]methanone]: the IC50 stood at 296 nM.

For the molecule `COc1cc(C(=O)N2[C@H]3CC[C@@H]2[C@H](N)C3)cc2nc(-c3cc4ccc(C(C)CC#N)nc4n3CC3CC3)c(C)n12` (some centres unmarked) [Example 557, 3-[2-[7-[(1~{R},2~{R}, 4~{S})-2-amino-7-azabicyclo[2.2.1]heptane-7-carbonyl]-5-methoxy-3-methylimidazo[1,2-a]pyridin-2-yl]-1-(cyclopropylmethyl)pyrrolo [2,3-b]pyridin-6-yl] butanenitrile], the IC50 was determined as 77.7 nM.

As to `COc1cc(C(=O)N2[C@H]3CC[C@@H]2[C@H](N)C3)cc2nc(-c3cc4ccc(C5=CC(=O)N(C)CC5)nc4n3CC3CC3)c(C)n12` [Example 558, 4-[2-[7-[(1~{R},2~{R}, 4~{S})-2-amino-7-azabicyclo[2.2.1]heptane-7-carbonyl]-5-methoxy-3-methylimidazo[1,2-a]pyridin-2-yl]-1-(cyclopropylmethyl)pyrrolo [2,3-b]pyridin-6-yl]-1-methyl-2,3-dihydropyridin-6-one], the IC50 came out at 220 nM.

With `CCOC(=O)CC(C)c1ccc2cc(-c3nc4cc(C(=O)N5[C@H]6CC[C@@H]5[C@H](N)C6)cc(OC)n4c3C)n(CC3CC3)c2n1` (some centres unmarked) [Example 559, ethyl 3-[2-[7-[(1~{R}, 2~{R},4~{S})-2-amino-7-azabicyclo[2.2.1]heptane-7-carbonyl]-5-methoxy-3-methylimidazo[1,2-a]pyridin-2-yl]-1-(cyclopropylmethyl)pyrrolo[2,3-b]pyridin-6-yl]butanoate], the IC50 worked out at 96.5 nM.

Consider `COc1cc(C(=O)N2[C@H]3CC[C@@H]2[C@H](N)C3)cc2nc(-c3cc4ccc(C5CCN(C)C(=O)C5)nc4n3CC3CC3)c(C)n12` (some centres unmarked) [Example 560, 4-[2-[7-[(1~{R},2~{R}, 4~{S})-2-amino-7-azabicyclo[2.2.1]heptane-7-carbonyl]-5-methoxy-3-methylimidazo[1,2-a]pyridin-2-yl]-1-(cyclopropylmethyl)pyrrolo [2,3-b]pyridin-6-yl]-1-methylpiperidin-2-one], for which the half-maximal inhibitory concentration (IC50) was 114 nM.

As for `COc1cc(C(=O)N2[C@H]3CC[C@@H]2[C@H](N)C3)cc2nc(-c3cc4ccc(C5=CC(=O)NCC5)nc4n3CC3CC3)c(C)n12` [Example 561, 4-[2-[7-[(1~{R},2~{R}, 4~{S})-2-amino-7-azabicyclo[2.2.1]heptane-7-carbonyl]-5-methoxy-3-methylimidazo[1,2-a]pyridin-2-yl]-1-(cyclopropylmethyl)pyrrolo[2,3-b]pyridin-6-yl]-2,3-dihydro-1~{H}-pyridin-6-one], the 50% inhibitory concentration (IC50) worked out at 193 nM.

As to `COc1cc(C(=O)N2[C@H]3CC[C@@H]2[C@H](N)C3)cc2nc(-c3cc4ccc(C5CCNC(=O)C5)nc4n3CC3CC3)c(C)n12` (some centres unmarked) [Example 562, 4-[2-[7-[(1~{R},2~{R}, 4~{S})-2-amino-7-azabicyclo[2.2.1]heptane-7-carbonyl]-5-methoxy-3-methylimidazo[1,2-a]pyridin-2-yl]-1-(cyclopropylmethyl)pyrrolo[2,3-b]pyridin-6-yl]piperidin-2-one], the IC50 came out at 83.1 nM.

`COc1cc(C(=O)N2[C@H]3CC[C@@H]2[C@H](N)C3)cc2nc(-c3cc4ccc(-c5cncc(F)c5C)nc4n3CC3CC3)c(C)n12` [Example 564, [(1~{R},2~{R},4~{S})-2-amino-7-azabicyclo [2.2.1]heptan-7-yl]-[2-[1-(cyclopropylmethyl)-6-(5-fluoro-4-methylpyridin-3-yl)pyrrolo [2,3-b]pyridin-2-yl]-5-methoxy-3-methylimidazo[1,2-a]pyridin-7-yl]methanone]: the IC50 is 332 nM.

Consider `CC[C@](C)(O)c1ccc2cc(-c3nc4cc(C(=O)N5[C@H]6CC[C@@H]5[C@H](N)C6)cc(OC)n4c3C)n(CC3CC3)c2n1` [Example 565, [(1~{R},2~{R},4~{S})-2-amino-7-azabicyclo [2.2.1]heptan-7-yl]-[2-[1-(cyclopropylmethyl)-6-[(2~{S})-2-hydroxybutan-2-yl]pyrrolo[2,3-b]pyridin-2-yl]-5-methoxy-3-methylimidazo[1,2-a]pyridin-7-yl]methanone], for which the IC50 was determined as 159 nM.

Take `CC[C@@](C)(O)c1ccc2cc(-c3nc4cc(C(=O)N5[C@H]6CC[C@@H]5[C@H](N)C6)cc(OC)n4c3C)n(CC3CC3)c2n1` [Example 566, [(1~{R},2~{R},4~{S})-2-amino-7-azabicyclo [2.2.1]heptan-7-yl]-[2-[1-(cyclopropylmethyl)-6-[(2~{R})-2-hydroxybutan-2-yl]pyrrolo[2,3-b]pyridin-2-yl]-5-methoxy-3-methylimidazo [1,2-a]pyridin-7-yl]methanone]: the IC50 was 123 nM.

As for `COc1cc(C(=O)N2[C@H]3CC[C@@H]2[C@H](N)C3)cc2nc(-c3cc4ccc(-c5cccnc5-c5cncs5)nc4n3CC3CC3)c(C)n12` [Example 567, [(1~{R},2~{R},4~{S})-2-amino-7-azabicyclo [2.2.1]heptan-7-yl]-[2-[1-(cyclopropylmethyl)-6-[2-(1,3-thiazol-5-yl)pyridin-3-yl]pyrrolo[2,3-b]pyridin-2-yl]-5-methoxy-3-methylimidazo[1,2-a]pyridin-7-yl]methanone], the IC50 was found to be 114 nM.
